In the test the test system is BDF1 mice, P388 leukemia ip, median survival T/C. The test is described as follows: NCI In Vivo Anticancer Drug Screen. Data for tumor model P388 Leukemia (intraperitoneal) in B6D2F1 (BDF1) mice. To be noted: endpoint: median survival time, higher = longer survival. The gist of the method: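 T/C = treated-group survival ÷ vehicle-control survival; tumour transplanted into mice before dosing.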

The mark [1] stands for this setting: dose: 100.0 mg/kg/injection, schedule: Q01DX009 (ip), vehicle: saline with Tween-80.
The mark [2] stands for this setting: dose: 200.0 mg/kg/injection, schedule: Q01DX009 (ip), vehicle: saline with Tween-80.
Where [3] appears, read: dose: 400.0 mg/kg/injection, schedule: Q01DX009 (ip), vehicle: saline with Tween-80.
[4] abbreviates: dose: 50.0 mg/kg/injection, schedule: Q01DX009 (ip), vehicle: Klucel (hydroxypropylcellulose) (HPC).
The mark [5] stands for this setting: dose: 100.0 mg/kg/injection, schedule: Q01DX009 (ip), vehicle: Klucel (hydroxypropylcellulose) (HPC).
Setting [6] is: dose: 200.0 mg/kg/injection, schedule: Q01DX009 (ip), vehicle: Klucel (hydroxypropylcellulose) (HPC).
Setting [7] is: dose: 100.0 mg/kg/injection, schedule: Q01DX001 (ip), vehicle: saline with Tween-80.
Setting [8] is: dose: 200.0 mg/kg/injection, schedule: Q01DX001 (ip), vehicle: saline with Tween-80.
[9] abbreviates: dose: 100.0 mg/kg/injection, schedule: Q04DX003 (ip), vehicle: saline with Tween-80.
Setting [10] is: dose: 200.0 mg/kg/injection, schedule: Q04DX003 (ip), vehicle: saline with Tween-80.
Where [11] appears, read: dose: 25.0 mg/kg/injection, schedule: Q04DX003 (ip), vehicle: water.
[12] abbreviates: dose: 50.0 mg/kg/injection, schedule: Q01DX009 (ip), vehicle: saline with Tween-80.

The values below come from PubChem BioAssay AID328 (DTP/NCI, 2004).

“And” between values parts separate entries of the source, which are not always exact repeats. Identical values can stand only once. Inconclusive results and toxic doses are left out.

In the case of `CC1CN(Cc2ccc([N+](=O)[O-])cc2)CC(C)N1N` (configuration not stated), the T/C reads like this: (dose: 3.12 mg/kg/injection, schedule: Q04DX003 (ip), vehicle: saline with Tween-80) 96 % of control; (dose: 6.25 mg/kg/injection, schedule: Q04DX003 (ip), vehicle: saline with Tween-80) 116 % of control; (dose: 12.5 mg/kg/injection, schedule: Q04DX003 (ip), vehicle: saline with Tween-80) 107 % of control; (dose: 25.0 mg/kg/injection, schedule: Q04DX003 (ip), vehicle: saline with Tween-80) 107 % of control.
As to `O=C(O)CNC(=O)c1ccc([N+](=O)[O-])cc1`, the T/C reads like this: under setting [1], 90 % of control; under setting [2], 90 % of control; under setting [3], 86 % of control.
`O=C(NNC(=O)OCc1ccccc1)OCc1ccccc1`: the T/C by setting is: under setting [4], 96 % of control; under setting [5], 96 % of control; (dose: 100.0 mg/kg/injection, schedule: Q04DX003 (ip), vehicle: Klucel (hydroxypropylcellulose) (HPC)) 90 % of control; under setting [6], 92 % of control; (dose: 200.0 mg/kg/injection, schedule: Q04DX003 (ip), vehicle: Klucel (hydroxypropylcellulose) (HPC)) 109 % of control.
With `CN1CCN(c2nc3cccnc3s2)CC1`, the T/C (dose: 100.0 mg/kg/injection, schedule: Q04DX003 (ip), vehicle: saline) is 93 % of control.
Take `CC1CCC2(C(=O)O)CCC3(C)C(=CCC4C5(C)CC(O)C(O)C(C)(C(=O)O)C5CCC43C)C2C1(C)O` (configuration not stated): the T/C by setting is: under setting [7], 104 % of control; under setting [8], 100 % of control.
Consider `COc1ccc(-c2csc(-c3ccccc3)n2)cc1N=Cc1ccc(N(CCCl)CCCl)c(OC)c1`, for which the T/C was 118 % of control (dose: 2.6 mg/kg/injection, schedule: Q04DX003 (ip), vehicle: saline with Tween-80); 122 % of control (dose: 4.0 mg/kg/injection, schedule: Q04DX003 (ip), vehicle: saline with Tween-80); 90 % of control (dose: 6.0 mg/kg/injection, schedule: Q04DX003 (ip), vehicle: saline with Tween-80); 190 % of control (dose: 13.0 mg/kg/injection, schedule: Q04DX003 (ip), vehicle: saline with Tween-80); 240 % of control (dose: 17.0 mg/kg/injection, schedule: Q01DX009 (ip), vehicle: saline with Tween-80); 204 % of control (dose: 20.0 mg/kg/injection, schedule: Q04DX003 (ip), vehicle: saline with Tween-80). Also, the T/C is, setting by setting: (dose: 25.0 mg/kg/injection, schedule: Q01DX009 (ip), vehicle: saline with Tween-80) 240 % of control; (dose: 30.0 mg/kg/injection, schedule: Q04DX003 (ip), vehicle: saline with Tween-80) 271 % of control; (dose: 37.0 mg/kg/injection, schedule: Q01DX009 (ip), vehicle: saline with Tween-80) 184 % of control; (dose: 44.0 mg/kg/injection, schedule: Q04DX003 (ip), vehicle: saline with Tween-80) 242 % of control and 300 % of control; (dose: 67.0 mg/kg/injection, schedule: Q04DX003 (ip), vehicle: saline with Tween-80) 272 % of control and 300 % of control; under setting [1], 87 % of control.
As for `COc1cccc(CNc2cccc(Cl)c2Cl)c1OC`, the T/C runs as follows: under setting [9], 100 % of control; under setting [10], 104 % of control; (dose: 400.0 mg/kg/injection, schedule: Q04DX003 (ip), vehicle: saline with Tween-80) 100 % of control.
For `Nc1nc(=S)[nH]c(C(=O)O)c1Cc1ccccc1`, the T/C by setting is: (dose: 25.0 mg/kg/injection, schedule: Q01DX009 (ip), vehicle: Klucel (hydroxypropylcellulose) (HPC)) 109 % of control; under setting [4], 86 % of control and 115 % of control; under setting [5], 115 % of control; under setting [6], 120 % of control.
For the compound `CN(C)/N=N/c1nc(Cc2ccccc2)[nH]c1C(N)=O`, the T/C is, setting by setting: (dose: 177.0 mg/kg/injection, schedule: Q01DX009 (ip), vehicle: saline with Tween-80) 100 % of control; (dose: 266.0 mg/kg/injection, schedule: Q01DX009 (ip), vehicle: saline with Tween-80) 154 % of control; under setting [3], 150 % of control; (dose: 600.0 mg/kg/injection, schedule: Q01DX009 (ip), vehicle: saline with Tween-80) 195 % of control.
Consider `Nc1nc(N)c2cc(N3CCCC3c3ccc(Cl)c(Cl)c3)ccc2n1` (configuration not stated), for which the T/C runs as follows: (dose: 0.78 mg/kg/injection, schedule: Q01DX009 (ip), vehicle: water) 110 % of control; (dose: 1.56 mg/kg/injection, schedule: Q01DX009 (ip), vehicle: water) 117 % of control; (dose: 3.12 mg/kg/injection, schedule: Q01DX009 (ip), vehicle: water) 113 % of control; (dose: 3.12 mg/kg/injection, schedule: Q04DX003 (ip), vehicle: water) 104 % of control and 109 % of control; (dose: 6.25 mg/kg/injection, schedule: Q01DX009 (ip), vehicle: water) 119 % of control; (dose: 6.25 mg/kg/injection, schedule: Q04DX003 (ip), vehicle: water) 110 % of control and 116 % of control. Also, the T/C runs as follows: (dose: 12.5 mg/kg/injection, schedule: Q04DX003 (ip), vehicle: water) 108 % of control and 114 % of control; (dose: 20.0 mg/kg/injection, schedule: Q04DX003 (ip), vehicle: water) 111 % of control; under setting [11], 116 % of control.
On to `Cc1ccc(Nc2ccc(Nc3ccc(C)cc3)c3c2C(=O)c2ccccc2C3=O)cc1`, for which the T/C is 90 % of control under setting [12]; 86 % of control under setting [1]; 88 % of control under setting [9]; 90 % of control under setting [2]; 100 % of control under setting [10].
`c1ccc2c(c1)cc1c3nncn3ncn21`: the T/C by setting is: under setting [12], 90 % of control; under setting [1], 114 % of control.
Turning to `Clc1ccc2c(c1)CN1Cc3cc(Cl)ccc3C2C1`, the T/C runs as follows: (dose: 50.0 mg/kg/injection, schedule: Q01DX001 (ip), vehicle: saline with Tween-80) 108 % of control; under setting [7], 108 % of control; under setting [8], 97 % of control.
As to `[N-]=[N+]=NCc1cnccn1`, the T/C (dose: 12.5 mg/kg/injection, schedule: Q01DX009 (ip), vehicle: saline) is 100 % of control and the T/C (dose: 25.0 mg/kg/injection, schedule: Q01DX009 (ip), vehicle: saline) was 113 % of control.
`CC[As](=O)(O)CC`: the T/C is, setting by setting: (dose: 50.0 mg/kg/injection, schedule: Q01DX009 (ip), vehicle: saline) 103 % of control; (dose: 50.0 mg/kg/injection, schedule: Q04DX003 (ip), vehicle: saline) 100 % of control; (dose: 100.0 mg/kg/injection, schedule: Q01DX009 (ip), vehicle: saline) 100 % of control and 108 % of control; (dose: 132.0 mg/kg/injection, schedule: Q01DX009 (ip), vehicle: saline) 95 % of control; (dose: 200.0 mg/kg/injection, schedule: Q04DX003 (ip), vehicle: saline) 108 % of control.
For `CN(C)C1=C(N2CC2)C(=O)C(N(C)C)=C(N2CC2)C1=O`, the T/C (dose: 0.25 mg/kg/injection, schedule: Q01DX009 (ip), vehicle: saline) was 87 % of control; the T/C (dose: 0.5 mg/kg/injection, schedule: Q01DX009 (ip), vehicle: saline) was 151 % of control; the T/C (dose: 1.0 mg/kg/injection, schedule: Q01DX009 (ip), vehicle: saline) was 174 % of control.
Consider `Brc1cnc[nH]1`, for which the T/C is, setting by setting: (dose: 25.0 mg/kg/injection, schedule: Q01DX009 (ip), vehicle: water) 103 % of control; under setting [11], 106 % of control; (dose: 50.0 mg/kg/injection, schedule: Q01DX009 (ip), vehicle: water) 91 % of control; (dose: 50.0 mg/kg/injection, schedule: Q04DX003 (ip), vehicle: water) 94 % of control and 106 % of control; (dose: 100.0 mg/kg/injection, schedule: Q01DX009 (ip), vehicle: water) 87 % of control; (dose: 100.0 mg/kg/injection, schedule: Q04DX003 (ip), vehicle: water) 93 % of control (2×) and 110 % of control. For the same compound, the T/C by setting is: (dose: 200.0 mg/kg/injection, schedule: Q01DX009 (ip), vehicle: water) 100 % of control; (dose: 200.0 mg/kg/injection, schedule: Q04DX003 (ip), vehicle: water) 89 % of control and 97 % of control; (dose: 300.0 mg/kg/injection, schedule: Q04DX003 (ip), vehicle: water) 98 % of control; (dose: 400.0 mg/kg/injection, schedule: Q04DX003 (ip), vehicle: water) 94 % of control and 99 % of control and 103 % of control.
